In patent US9328118B2, “Nitrogen-containing bicyclic aromatic heterocyclic compound” (ASTELLAS PHARMA INC., priority 2012, dated 2016):
Where a name gives a salt, the structure may show the parent alone.

Target: human cathepsin S (Homo sapiens (Human), UniProt P25774)
Test: In vitro human cathepsin S inhibitory activity (VVR-AMC fluorescence)
Format: biochemical
Settings: human cathepsin S enzyme, substrate VVR-AMC 40 μM, pH 4.5, 37° C.; read-out: IC50 value of the human cathepsin S inhibitory activity (Data 1)
Protocol: Test Example 1 Measurement of a In Vitro Human Cathepsin S Inhibitory Activity
5 μL of a human cathepsin S enzyme (R&D1183-CY-010) was added to a 96-well plate so as to be 20 ng/well. […] A reaction rate at the time of not adding an enzyme in which the test compound was not added and a reaction rate at the time of adding an enzyme in which the test compound was not added were set to 100% inhibition and 0% inhibition, respectively, then, an inhibition rate at each concentration was determined, and IC50 values were calculated by a linear regression method. In the Table, Ex represents Example compound No., and Data 1 represents an IC50 value (nM) of the human cathepsin S inhibitory activity.

Sequence of human cathepsin S (P25774 115-331): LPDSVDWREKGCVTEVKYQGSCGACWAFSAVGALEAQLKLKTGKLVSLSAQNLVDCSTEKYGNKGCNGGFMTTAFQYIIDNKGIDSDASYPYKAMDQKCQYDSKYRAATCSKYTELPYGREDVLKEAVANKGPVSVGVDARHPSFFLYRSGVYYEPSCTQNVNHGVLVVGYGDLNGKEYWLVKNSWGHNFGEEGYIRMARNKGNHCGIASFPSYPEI

Row | IC50 | SMILES
1 | 4.2 nM | CCOc1ccc(-c2nc(C#N)nc3c2ccn3CC(=O)N2CCN(C)CC2)cc1C(F)(F)F [Example 5, 4-[4-ethoxy-3-(trifluoromethyl)phenyl]-7-[2-(4-methylpiperazin-1-yl)-2-oxoethyl]-7H-pyrrolo[2,3-d]pyrimidine-2-carbonitrile]
2 | 6.2 nM | CN(C)C(=O)N1CCC(CCOc2ccc(-c3nc(C#N)nc4c3ncn4C)cc2C(F)(F)F)CC1 [Example 7, 4-{2-[4-(2-cyano-9-methyl-9H-purin-6-yl)-2-(trifluoromethyl)phenoxy]ethyl}-N,N-dimethylpiperidine-1-carboxamide]
3 | 1.6 nM | CN1CCN(C(=O)Cn2ccc3c(-c4ccc(OCCC5CCOCC5)c(C(F)(F)F)c4)nc(C#N)nc32)CC1 [Example 8, 7-[2-(4-methylpiperazin-1-yl)-2-oxoethyl]-4-{4-[2-(tetrahydro-2H-pyran-4-yl)ethoxy]-3-(trifluoromethyl)phenyl}-7H-pyrrolo[2,3-d]pyrimidine-2-carbonitrile monohydrochloride]
4 | 2.7 nM | Cc1nc2c(-c3ccc(OCCC4CCNCC4)c(C(F)(F)F)c3)nc(C#N)nc2n1C [Example 10, 8,9-dimethyl-6-{4-[2-(piperidin-4-yl)ethoxy]-3-(trifluoromethyl)phenyl}-9H-purine-2-carbonitrile monohydrochloride]
5 | 1.9 nM | CCN1CCC(CCOc2ccc(-c3nc(C#N)nc4c3nc(C)n4C)cc2C(F)(F)F)CC1 [Example 11, 6-{4-[2-(1-ethylpiperidin-4-yl)ethoxy]-3-(trifluoromethyl)phenyl}-8,9-dimethyl-9H-purine-2-carbonitrile]
6 | 2.7 nM | CCN1CCCC(CCOc2ncc(-c3nc(C#N)nc4c3ccn4C)cc2C(F)(F)F)C1 (centres unmarked) [Example 12, 4-{6-[2-(1-ethylpiperidin-3-yl)ethoxy]-5-(trifluoromethyl)pyridin-3-yl}-7-methyl-7H-pyrrolo[2,3-d]pyrimidine-2-carbonitrile monohydrochloride]
7 | 2.7 nM | CCN1CCC(CCOc2ccc(-c3nc(C#N)nc4c3ccn4CCOC)cc2C(F)(F)F)CC1 [Example 13, 4-{4-[2-(1-ethylpiperidin-4-yl)ethoxy]-3-(trifluoromethyl)phenyl}-7-(2-methoxyethyl)-7H-pyrrolo[2,3-d]pyrimidine-2-carbonitrile monohydrochloride]
8 | 2.3 nM | Cn1ccc2c(-c3ccc(OCCC4CCN(C5CC5)CC4)c(C(F)(F)F)c3)nc(C#N)nc21 [Example 14, 4-{4-[2-(1-cyclopropylpiperidin-4-yl)ethoxy]-3-(trifluoromethyl)phenyl}-7-methyl-7H-pyrrolo[2,3-d]pyrimidine-2-carbonitrile]
9 | 4.7 nM | CN(C)C(=O)CN1CCC(CCOc2ccc(-c3nc(C#N)nc4c3ccn4CC3CCCO3)cc2C(F)(F)F)CC1 (centres unmarked) [Example 16, 2-[4-(2-{4-[2-cyano-7-(tetrahydrofuran-2-ylmethyl)-7H-pyrrolo[2,3-d]pyrimidin-4-yl]-2-(trifluoromethyl)phenoxy}ethyl)piperidin-1-yl]-N,N-dimethylacetamide monohydrochloride]
10 | 4.5 nM | Cn1ccc2c(-c3ccc(OCCC4C5CCC4CNC5)c(C(F)(F)F)c3)nc(C#N)nc21 (centres unmarked) [Example 38]
11 | 1.5 nM | CN1CCC(CCOc2ncc(-c3nc(C#N)nc4c3ncn4C)cc2C(F)(F)F)CC1 [Example 136, 9-methyl-6-{6-[2-(1-methylpiperidin-4-yl)ethoxy]-5-(trifluoromethyl)pyridin-3-yl}-9H-purine-2-carbonitrile]
12 | 2.7 nM | Cn1cnc2c(-c3cnc(OCCC4CCN(C(=O)[C@@H]5CCCN5)CC4)c(C(F)(F)F)c3)nc(C#N)nc21 [Example 138]
13 | 2.1 nM | CC(C)N1CCC(CCOc2ncc(-c3nc(C#N)nc4c3ncn4C)cc2C(F)(F)F)CC1 [Example 139]
14 | 1.5 nM | Cn1cnc2c(-c3cnc(OCCC4CCN5CCCC5C4)c(C(F)(F)F)c3)nc(C#N)nc21 (centres unmarked) [Example 142]
15 | 1.5 nM | CN1CCC[C@@H]1C(=O)N1CC[C@H](OCCOc2ncc(-c3nc(C#N)nc4c3ccn4C)cc2C(F)(F)F)C1 [Example 143, 7-methyl-4-[6-(2-{[(3S)-1-(1-methyl-D-prolyl)pyrrolidin-3-yl]oxy}ethoxy)-5-(trifluoromethyl)pyridin-3-yl]-7H-pyrrolo[2,3-d]pyrimidine-2-carbonitrile monofumarate]
16 | 2.8 nM | CC(C)CN1CCC(CCOc2ncc(-c3nc(C#N)nc4c3ncn4C)cc2C(F)(F)F)CC1 [Example 144]
17 | 3.2 nM | Cn1cnc2c(-c3cnc(OCCC4CCN(C(C)(C)C)CC4)c(C(F)(F)F)c3)nc(C#N)nc21 [Example 146]
18 | 2.4 nM | Cn1ccc2c(-c3cnc(OCCOC4CCNCC4)c(C(F)(F)F)c3)nc(C#N)nc21 [Example 147]
19 | 2.8 nM | Cn1ccc2c(-c3cnc(OCCO[C@H]4CCNC4)c(C(F)(F)F)c3)nc(C#N)nc21 [Example 148]
20 | 2.7 nM | CN1CCC[C@H]1C(=O)N1CCC(OCCOc2ncc(-c3nc(C#N)nc4c3ccn4C)cc2C(F)(F)F)CC1 [Example 149]
21 | 1.7 nM | CN1CCC[C@H]1C(=O)N1CC[C@H](OCCOc2ncc(-c3nc(C#N)nc4c3ccn4C)cc2C(F)(F)F)C1 [Example 150]
22 | 1.6 nM | Cn1ccc2c(-c3cnc(OCC4CCNCC4)c(C(F)(F)F)c3)nc(C#N)nc21 [Example 153]
23 | 2.4 nM | Cn1ccc2c(-c3cnc(OCC4CCN(C(=O)[C@@H]5CCCN5)CC4)c(C(F)(F)F)c3)nc(C#N)nc21 [Example 154]
24 | 1.5 nM | Cn1ccc2c(-c3cnc(OCC4CCN(CC(C)(C)O)CC4)c(C(F)(F)F)c3)nc(C#N)nc21 [Example 155]
25 | 2.4 nM | CC(C)N1CCC[C@H]1C(=O)N1CCC(COc2ncc(-c3nc(C#N)nc4c3ccn4C)cc2C(F)(F)F)CC1 [Example 156]
26 | 2.1 nM | CN1CCC[C@H]1C(=O)N1CC[C@@H](OCCOc2ncc(-c3nc(C#N)nc4c3ccn4C)cc2C(F)(F)F)C1 [Example 157]
27 | 2.7 nM | Cn1ccc2c(-c3cnc(OCC4CCN(C(=O)C5CCNCC5)CC4)c(C(F)(F)F)c3)nc(C#N)nc21 [Example 159]
28 | 2.4 nM | Cn1ccc2c(-c3cnc(OCC4CCN(C(=O)C5CCN(C6CCOCC6)CC5)CC4)c(C(F)(F)F)c3)nc(C#N)nc21 [Example 160]

Row | SMILES | IC50
29 | Cn1cnc2c(-c3cnc(OCCC4CCN(C(CF)CF)CC4)c(C(F)(F)F)c3)nc(C#N)nc21 [Example 145] | 1 nM
